Measured values as given in ChEMBL document CHEMBL3885881, “DrugMatrix”.

Species: Rattus norvegicus
Test: DrugMatrix - Regimen: Daily Repeat
Assay type: toxicity, organism-based, Sprague-Dawley
Parameters: regimen Daily Repeat, gender Male, age 6-8 weeks
Conditions: in vivo, po, route oral GAVAGE, […]; for POTASSIUM / SODIUM / TOTAL BILIRUBIN / TOTAL PROTEIN / URIC ACID / ALANINE AMINOTRANSFERASE / ALBUMIN / ALKALINE PHOSPHATASE / ASPARTATE AMINOTRANSFERASE / BLOOD UREA NITROGEN / CARBON DIOXIDE / CHLORIDE / CHOLESTEROL / CREATINE PHOSPHOKINASE / CREATININE / GLUCOSE / LACTATE DEHYDROGENASE / LIPASE / PHOSPHORUS: tissue Plasma; for ABSOLUTE BASOPHIL / ABSOLUTE EOSINOPHIL / ABSOLUTE LYMPHOCYTE / ABSOLUTE MONOCYTE / ABSOLUTE SEGMENTED NEUTROPHIL / BASOPHIL / EOSINOPHIL / ERYTHROCYTE COUNT / HEMATOCRIT / HEMOGLOBIN / LEUKOCYTE COUNT / LYMPHOCYTE / MEAN CORPUSCULAR HEMOGLOBIN / MEAN CORPUSCULAR HEMOGLOBIN CONCENTRATION / MEAN CORPUSCULAR VOLUME / MONOCYTE / NEUTROPHIL / NUCLEATED RED BLOOD CELLS / PLATELET COUNT: tissue Blood
[1] = 9 mg/kg, 72 h, dose level M1, time 3 day
[2] = 9 mg/kg, 120 h, dose level M1, time 5 day
[3] = 36 mg/kg, 72 h, dose level High, time 3 day
[4] = 36 mg/kg, 120 h, dose level High, time 5 day

CS(=O)(=O)OCCCCOS(C)(=O)=O [BUSULFAN]
POTASSIUM [1]: 6.13 MEQ/L | SODIUM [1]: 143.63 MEQ/L | TOTAL BILIRUBIN [1]: 0.13 mg/dL | TOTAL PROTEIN [1]: 5.73 G/DL | URIC ACID [1]: 1.27 mg/dL | ABSOLUTE BASOPHIL [2]: 0 CELLS/uL | ABSOLUTE EOSINOPHIL [2]: 0 CELLS/uL | ABSOLUTE LYMPHOCYTE [2]: 6323.33 CELLS/uL | ABSOLUTE MONOCYTE [2]: 60 CELLS/uL | ABSOLUTE SEGMENTED NEUTROPHIL [2]: 150 CELLS/uL | BASOPHIL [2]: 0% | EOSINOPHIL [2]: 0% | ERYTHROCYTE COUNT [2]: 6.03 x10E6/uL | HEMATOCRIT [2]: 36.67% | HEMOGLOBIN [2]: 14.47 G/DL | LEUKOCYTE COUNT [2]: 6.53 x10E3/uL | LYMPHOCYTE [2]: 97% | MEAN CORPUSCULAR HEMOGLOBIN [2]: 24.03 pg | MEAN CORPUSCULAR HEMOGLOBIN CONCENTRATION [2]: 39.43 G/DL | MEAN CORPUSCULAR VOLUME [2]: 60.83 fL | MONOCYTE [2]: 0.67% | NEUTROPHIL [2]: 2.33% | NUCLEATED RED BLOOD CELLS [2]: 0 /100WBC | PLATELET COUNT [2]: 1101.33 x10E3/uL | ALANINE AMINOTRANSFERASE [2]: 48.67 u/L | ALBUMIN [2]: 4.4 G/DL | ALKALINE PHOSPHATASE [2]: 322 u/L | ASPARTATE AMINOTRANSFERASE [2]: 84.67 u/L | BLOOD UREA NITROGEN [2]: 8.33 mg/dL | CARBON DIOXIDE [2]: 33 mmol/L | CHLORIDE [2]: 99.33 MEQ/L | CHOLESTEROL [2]: 81.67 mg/dL | CREATINE PHOSPHOKINASE [2]: 189.67 u/L | CREATININE [2]: 0.3 mg/dL | GLUCOSE [2]: 133.33 mg/dL | LACTATE DEHYDROGENASE [2]: 120 u/L | LIPASE [2]: 11.33 u/L | PHOSPHORUS [2]: 9.3 mg/dL | POTASSIUM [2]: 6.08 MEQ/L | SODIUM [2]: 145.27 MEQ/L | TOTAL BILIRUBIN [2]: 0.13 mg/dL | TOTAL PROTEIN [2]: 6.33 G/DL | URIC ACID [2]: 0.77 mg/dL | ABSOLUTE BASOPHIL [3]: 0 CELLS/uL | ABSOLUTE EOSINOPHIL [3]: 0 CELLS/uL | ABSOLUTE LYMPHOCYTE [3]: 7116 CELLS/uL | ABSOLUTE MONOCYTE [3]: 0 CELLS/uL | ABSOLUTE SEGMENTED NEUTROPHIL [3]: 417.33 CELLS/uL | BASOPHIL [3]: 0% | EOSINOPHIL [3]: 0% | ERYTHROCYTE COUNT [3]: 5.94 x10E6/uL | HEMATOCRIT [3]: 37.13% | HEMOGLOBIN [3]: 14.47 G/DL | LEUKOCYTE COUNT [3]: 7.53 x10E3/uL | LYMPHOCYTE [3]: 94.33% | MEAN CORPUSCULAR HEMOGLOBIN [3]: 24.5 pg | MEAN CORPUSCULAR HEMOGLOBIN CONCENTRATION [3]: 39.07 G/DL | MEAN CORPUSCULAR VOLUME [3]: 62.67 fL | MONOCYTE [3]: 0% | NEUTROPHIL [3]: 5.67% | NUCLEATED RED BLOOD CELLS [3]: 0 /100WBC | PLATELET COUNT [3]: 1000.33 x10E3/uL | ALANINE AMINOTRANSFERASE [3]: 45.33 u/L | ALBUMIN [3]: 4.4 G/DL | ALKALINE PHOSPHATASE [3]: 316.33 u/L | ASPARTATE AMINOTRANSFERASE [3]: 72.67 u/L | BLOOD UREA NITROGEN [3]: 12 mg/dL | CARBON DIOXIDE [3]: 33.33 mmol/L | CHLORIDE [3]: 101.5 MEQ/L | CHOLESTEROL [3]: 110.33 mg/dL | CREATINE PHOSPHOKINASE [3]: 312.33 u/L | CREATININE [3]: 0.1 mg/dL | GLUCOSE [3]: 170.33 mg/dL | LACTATE DEHYDROGENASE [3]: 86.33 u/L | LIPASE [3]: 12.33 u/L | PHOSPHORUS [3]: 10.73 mg/dL | POTASSIUM [3]: 5.47 MEQ/L | SODIUM [3]: 147.05 MEQ/L | TOTAL BILIRUBIN [3]: 0.17 mg/dL | TOTAL PROTEIN [3]: 6.3 G/DL | URIC ACID [3]: 0.6 mg/dL | ABSOLUTE BASOPHIL [4]: 0 CELLS/uL | ABSOLUTE EOSINOPHIL [4]: 0 CELLS/uL | ABSOLUTE LYMPHOCYTE [4]: 3639 CELLS/uL | ABSOLUTE MONOCYTE [4]: 0 CELLS/uL | ABSOLUTE SEGMENTED NEUTROPHIL [4]: 61 CELLS/uL | BASOPHIL [4]: 0% | EOSINOPHIL [4]: 0% | ERYTHROCYTE COUNT [4]: 6.14 x10E6/uL | HEMATOCRIT [4]: 38.4% | HEMOGLOBIN [4]: 14.8 G/DL | LEUKOCYTE COUNT [4]: 3.7 x10E3/uL | LYMPHOCYTE [4]: 98.5% | MEAN CORPUSCULAR HEMOGLOBIN [4]: 24.15 pg | MEAN CORPUSCULAR HEMOGLOBIN CONCENTRATION [4]: 38.6 G/DL | MEAN CORPUSCULAR VOLUME [4]: 62.55 fL | MONOCYTE [4]: 0% | NEUTROPHIL [4]: 1.5% | NUCLEATED RED BLOOD CELLS [4]: 0 /100WBC | PLATELET COUNT [4]: 1040 x10E3/uL | ALANINE AMINOTRANSFERASE [4]: 36.5 u/L | ALBUMIN [4]: 4.35 G/DL | ALKALINE PHOSPHATASE [4]: 322.5 u/L | ASPARTATE AMINOTRANSFERASE [4]: 72 u/L | BLOOD UREA NITROGEN [4]: 7 mg/dL | CARBON DIOXIDE [4]: 28 mmol/L | CHLORIDE [4]: 100 MEQ/L | CHOLESTEROL [4]: 78 mg/dL | CREATINE PHOSPHOKINASE [4]: 216 u/L | CREATININE [4]: 0.13 mg/dL | GLUCOSE [4]: 154 mg/dL | LACTATE DEHYDROGENASE [4]: 72 u/L | LIPASE [4]: 10.5 u/L | PHOSPHORUS [4]: 9.25 mg/dL | POTASSIUM [4]: 5.75 MEQ/L | SODIUM [4]: 145.2 MEQ/L | TOTAL BILIRUBIN [4]: 0.1 mg/dL | TOTAL PROTEIN [4]: 6.35 G/DL | URIC ACID [4]: 0.5 mg/dL
